Molecules are shown by their SMILES. ≈ marks a conversion by molar mass, not a printed value.

Holding throughout (assay type): cell-based
Experiment [1] has as its system DU145 cell line (prostate cancer). Briefly: MTT cell viability assay, DU145 cell line (prostate cancer). The conditions noted are these: Homo sapiens; DU-145, MTT, 48 hours; read-out: half maximal inhibitory concentration (IC50), DU-145. On the procedure:
(§1) Cell proliferation of A549 cell line (lung cancer), CT26 cell line (colon cancer), DU145 cell line (prostate cancer), HepG2 cell line (liver cancer), PC3 cell line (prostate cancer), MDA-MB-231 cell line (breast cancer) and MCF-7 cell line (breast cancer) was assessed by MTT cell viability assay.
(§2) Above cell lines were cultured in determined medium for 24 hours. Proliferative cells were washed with PBS solution, treated with trpsin-EDTA (1×), centrifuged at 1,200 rpm for 5 min, precipitated the cells and discarded supernatant. The cells were resuspended with 10 ml of fresh medium, and then loaded to 96-well plate. While the assay initiated, 0.01˜200 μg/ml of Antrodia camphorata extract was added in each well, and the plate was incubated for 48 hours, at 37° C., 5% CO2. Each wall was added with 2.5 mg/ml MTT reagent in the dark. After 4 hours of reaction, 100 μl lysis buffer were added to each wall to terminate the reaction. […] The experiment data was represented by means±SD. All data was statistically analyzed by paired-t test, and a P-value less than 0.05 was considered significant.
In general terms: Formazan colour is commonly taken as a measure of viable cells.

Experiment [2] concerns MDA-MB-231 cell line (breast cancer). The experiment is described as follows: MTT cell viability assay, MDA-MB-231 cell line (breast cancer). The conditions noted are these: Homo sapiens; MDA-MB-231, MTT, 48 hours; read-out: half maximal inhibitory concentration (IC50), MDA-MB-231. On the procedure: as §1, §2
The subject of experiment [3] is HepG2 cell line (liver cancer). The experiment is described as follows: MTT cell viability assay, HepG2 cell line (liver cancer). The following applies: Homo sapiens, 48 hours, read-out: half maximal inhibitory concentration (IC50), HepG2. As for the experimental part:
as §1, §2

Experiment [4] relates to MCF-7 cell line (breast cancer). Briefly: MTT cell viability assay, MCF-7 cell line (breast cancer). The following applies: Homo sapiens, MCF7; MCF-7, MTT, 48 hours; read-out: half maximal inhibitory concentration (IC50), MCF-7. As for the experimental part: as §1, §2
Experiment [5] deals with PC3 cell line (prostate cancer). Briefly: MTT cell viability assay, PC3 cell line (prostate cancer). The conditions noted are these: Homo sapiens, PC-3, 48 hours, read-out: half maximal inhibitory concentration (IC50), PC3. As for the experimental part: as §1, §2
The subject of experiment [6] is CT26 cell line (colon cancer). The experiment is described as follows: MTT cell viability assay, CT26 cell line (colon cancer). The conditions noted are these: Mus musculus, 48 hours, read-out: half maximal inhibitory concentration (IC50), CT26. On the procedure:
as §1, §2

Experiment [7] deals with A549 cell line (lung cancer). Briefly: MTT cell viability assay, A549 cell line (lung cancer). The following applies: Homo sapiens, 48 hours, read-out: half maximal inhibitory concentration (IC50), A549. As for the experimental part:
as §1, §2

Experiment [8] in a line: Solvent (DMSO) cytotoxicity, cell death. The following applies: DMSO content of diluted drug; cell line not stated. As for the experimental part: The symbols used in tables respectively represent: 0-25% cell viability: +/−; 25˜50% cell viability: +; 50˜75% cell viability: ++, 75˜100% cell viability: +++, >100% cell viability: ++++. […] In this experiment, when the drug concentration was diluted to […], DMSO concentration was 0.5%.

Consider `COC1=C(OC)[C@H](O)[C@H](C/C=C(\C)CC/C=C(\C)C/C=C/C(C)(C)O)[C@@H](C)C1=O` [Antrocamol LT3, (4R,5R,6R)-4-hydroxy-5-[(2E,6E,9E)-11-hydroxy-3,7,11-trimethyldodeca-2,6,9-trienyl]-2,3-dimethoxy-6-methylcyclohex-2-enone], for which the IC50 in experiment [1] worked out at 0.07 ± 0.001 µg/mL (≈ 0.172 µM); in experiment [2] it was 1.01 ± 0.06 µg/mL (≈ 2.48 µM); in experiment [3] it was 0.004 ± 0.001 µg/mL (≈ 0.00984 µM); in experiment [4], 0.1 ± 0.01 µg/mL (≈ 0.246 µM); in experiment [5] it was 0.009 ± 0.001 µg/mL (≈ 0.0221 µM); in experiment [6] it was 0.011 ± 0.001 µg/mL (≈ 0.0271 µM). Besides, the IC50 in experiment [7] is 0.014 ± 0.002 µg/mL (≈ 0.0344 µM).
On to `C[S+](C)[O-]` [DMSO], for which the “IC50 value of the solvent (50% cell death)” value in experiment [8] was found to be 2.34%.

The record behind these values is US9474775B2, “Compound, extract isolated from antrodia camphorate, and method using the same” (priority 2013, dated 2016).
